In ChEMBL document CHEMBL2073798, “P-Glycoprotein mediates the efflux of quinidine across the blood-brain barrier” (J Pharmacol Exp Ther, 1997):

What was measured:
[1] = biological target: T1, ATP-dependent translocase ABCB1 (Mus musculus, UniProt P21447); assay: TP_TRANSPORTER: increase in Quinidine concentration in brain in FVB mouse; format: functional, organism-based; settings: in vivo
[2] = biological target: T1, ATP-dependent translocase ABCB1; assay: TP_TRANSPORTER: increase in brain concentration in mdr1a(-/-) mouse; format: functional, organism-based; settings: in vivo

T1 sequence (P21447 whole entry): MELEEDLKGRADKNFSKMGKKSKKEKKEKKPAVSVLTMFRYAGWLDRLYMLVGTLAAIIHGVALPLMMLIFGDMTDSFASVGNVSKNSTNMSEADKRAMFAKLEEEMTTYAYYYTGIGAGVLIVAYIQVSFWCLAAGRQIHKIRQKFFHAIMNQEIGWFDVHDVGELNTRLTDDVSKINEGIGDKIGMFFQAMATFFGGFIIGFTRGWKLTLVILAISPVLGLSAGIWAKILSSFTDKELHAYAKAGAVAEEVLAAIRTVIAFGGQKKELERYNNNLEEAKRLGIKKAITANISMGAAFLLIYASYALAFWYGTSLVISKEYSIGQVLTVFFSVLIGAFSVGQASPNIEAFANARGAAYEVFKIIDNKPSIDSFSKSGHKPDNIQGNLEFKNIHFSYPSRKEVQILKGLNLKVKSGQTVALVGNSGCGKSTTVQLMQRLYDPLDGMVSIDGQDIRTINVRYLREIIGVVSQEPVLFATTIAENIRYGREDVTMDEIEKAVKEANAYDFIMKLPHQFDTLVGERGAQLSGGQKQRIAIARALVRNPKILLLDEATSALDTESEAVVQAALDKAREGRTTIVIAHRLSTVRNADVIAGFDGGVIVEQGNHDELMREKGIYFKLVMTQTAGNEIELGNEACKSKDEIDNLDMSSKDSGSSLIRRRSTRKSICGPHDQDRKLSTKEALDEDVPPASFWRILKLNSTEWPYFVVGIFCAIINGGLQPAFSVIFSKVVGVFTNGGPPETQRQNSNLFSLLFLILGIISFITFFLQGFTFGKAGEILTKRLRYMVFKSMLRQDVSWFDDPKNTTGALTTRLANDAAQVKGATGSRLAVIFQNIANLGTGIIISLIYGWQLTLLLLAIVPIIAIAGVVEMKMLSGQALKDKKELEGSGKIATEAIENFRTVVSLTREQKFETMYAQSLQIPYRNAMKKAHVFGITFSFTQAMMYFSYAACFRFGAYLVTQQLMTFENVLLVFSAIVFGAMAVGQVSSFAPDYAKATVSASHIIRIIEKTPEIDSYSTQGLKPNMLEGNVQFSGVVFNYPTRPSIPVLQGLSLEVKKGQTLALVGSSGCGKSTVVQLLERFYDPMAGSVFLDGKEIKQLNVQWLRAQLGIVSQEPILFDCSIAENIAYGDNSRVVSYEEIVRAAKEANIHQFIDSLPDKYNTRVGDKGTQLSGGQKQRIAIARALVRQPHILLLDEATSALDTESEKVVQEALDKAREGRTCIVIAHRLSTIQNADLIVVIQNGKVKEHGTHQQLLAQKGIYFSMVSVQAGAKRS

Row | Activity [1] [fold] | Activity [2] | SMILES
1 | 10.2 |  | C/C=C/C[C@@H](C)C(=O)[C@H]1C(=O)N[C@@H](C(C)C)C(=O)N(C)CC(=O)N(C)[C@@H](CC(C)C)C(=O)N[C@@H](C(C)C)C(=O)N(C)[C@@H](CC(C)C)C(=O)N[C@@H](C)C(=O)N[C@H](C)C(=O)N(C)[C@@H](CC(C)C)C(=O)N(C)[C@@H](CC(C)C)C(=O)N(C)[C@@H](C(C)C)C(=O)N1C [VALSPODAR]
2 |  | substrate [+] | C=C[C@H]1C[N@@]2CC[C@H]1C[C@@H]2[C@@H](O)c1ccnc2ccc(OC)cc12 [QUINIDINE]
